# Reference: patent publication US20200405697A1, “Antitumor Agent” (Taiho Pharmaceutical Co., Ltd, priority 2017, published 2020)
# Molecular target: T1, human RNR (histidine tagged human M1 and human M2 proteins) (Homo sapiens, UniProt P23921)
# T1 construct: made in house; host or cells: Escherichia coli
# T1 sequence (P23921 1-792): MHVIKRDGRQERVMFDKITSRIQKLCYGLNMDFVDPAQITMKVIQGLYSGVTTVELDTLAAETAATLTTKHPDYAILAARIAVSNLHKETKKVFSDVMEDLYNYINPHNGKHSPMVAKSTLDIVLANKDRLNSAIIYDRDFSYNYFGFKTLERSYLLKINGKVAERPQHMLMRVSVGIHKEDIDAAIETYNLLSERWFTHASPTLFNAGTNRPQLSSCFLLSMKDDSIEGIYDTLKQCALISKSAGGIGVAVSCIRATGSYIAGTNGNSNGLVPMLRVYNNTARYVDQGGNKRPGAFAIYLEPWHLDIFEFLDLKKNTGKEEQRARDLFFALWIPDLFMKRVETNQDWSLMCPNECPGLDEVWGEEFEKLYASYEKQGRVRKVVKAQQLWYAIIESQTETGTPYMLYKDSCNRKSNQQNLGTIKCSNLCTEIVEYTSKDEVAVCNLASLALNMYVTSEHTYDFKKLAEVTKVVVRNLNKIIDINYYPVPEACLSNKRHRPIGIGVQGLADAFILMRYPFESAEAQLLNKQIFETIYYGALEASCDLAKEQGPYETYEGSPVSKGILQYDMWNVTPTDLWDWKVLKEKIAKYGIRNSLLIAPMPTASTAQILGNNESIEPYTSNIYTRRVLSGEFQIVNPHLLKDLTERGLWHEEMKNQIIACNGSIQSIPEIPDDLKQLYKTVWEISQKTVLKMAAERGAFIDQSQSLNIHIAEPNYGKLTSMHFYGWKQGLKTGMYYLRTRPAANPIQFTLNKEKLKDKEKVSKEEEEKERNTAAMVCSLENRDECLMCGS
# Assay: Human RNR inhibition effect (dCDP formation from CDP)
# Assay type: biochemical
# Conditions: 10 μM CDP, 37° C. for 30 minutes, read-out: RNR inhibitory activity IC50
# In short: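 His-tagged human M1 (isoform 1) and N-terminal 59-aa-truncated M2 (isoform 2), E. coli-expressed, Ni-purified, preincubated 20 min with compound (1% DMSO). Reaction with 10 μM CDP, 2 mM ATP, 0.24 mM NADPH, 6 mM DTT, 4 mM Mg acetate, 100 mM KCl, 50 mM HEPES pH 7.2, 30 min at 37° C. dCDP formed quantified by reverse-phase HPLC after heat stop.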
row,IC50 [nM],Compound
1,790,"Cc1ccc(F)c([C@H](C)[C@H](NS(=O)(=O)c2ccc(Cl)cc2C(N)=O)c2n[nH]c(=O)o2)c1C [Example 32, 5-chloro-2-(N-((1S,2S)-2-(6-fluoro-2,3-dimethylphenyl)-1-(5-oxo-4,5-dihydro-1,3,4-oxadiazol-2-yl)propyl)sulfamoyl)benzamide]"
2,130,"Cc1c(Br)ccc(F)c1[C@@H](C)[C@H](NS(=O)(=O)c1ccc(Br)cc1C(N)=O)c1n[nH]c(=O)o1 [Example 35, 5-bromo-2-(N-((1S,2R)-2-(3-bromo-6-fluoro-2-methylphenyl)-1-(5-oxo-4,5-dihydro-1,3,4-oxadiazol-2-yl)propyl)sulfamoyl)benzamide]"
3,110,"Cc1ccc(F)c([C@@H](C)[C@H](NS(=O)(=O)c2cc(C(=O)N3CCOCC3)ccc2C(N)=O)c2n[nH]c(=O)o2)c1C [Example 36, 2-(N-((1S,2R)-2-(6-fluoro-2,3-dimethylphenyl)-1-(5-oxo-4,5-dihydro-1,3,4-oxadiazol-2-yl)propyl)sulfamoyl)-4-(morpholine-4-carbonyl)benzamide]"
4,140,"Cc1ccc(F)c([C@@H](C)[C@H](NS(=O)(=O)c2cc(C(=O)N(C)C)ccc2C(N)=O)c2n[nH]c(=O)o2)c1C [Example 37, 3-(N-((1S,2R)-2-(6-fluoro-2,3-dimethylphenyl)-1-(5-oxo-4,5-dihydro-1,3,4-oxadiazol-2-yl)propyl)sulfamoyl)-N1,N1-dimethylterephthalamide]"
5,190,"Cc1ccc(F)c([C@@H](C)[C@H](NS(=O)(=O)c2cc(C(=O)O)c(Cl)cc2C(N)=O)c2n[nH]c(=O)o2)c1C [Example 38, 4-carbamoyl-2-chloro-5-(N-((1S,2R)-2-(6-fluoro-2,3-dimethylphenyl)-1-(5-oxo-4,5-dihydro-1,3,4-oxadiazol-2-yl)propyl)sulfamoyl)benzoic acid]"
6,40,"Cc1ccc(F)c([C@@H](C)[C@H](NS(=O)(=O)c2cc(C(=O)N(C)C)c(Cl)cc2C(N)=O)c2n[nH]c(=O)o2)c1C [Example 39, 2-chloro-5-(N-((1S,2R)-2-(6-fluoro-2,3-dimethylphenyl)-1-(5-oxo-4,5-dihydro-1,3,4-oxadiazol-2-yl)propyl)sulfamoyl)-N1,N1-dimethyl terephthalamide]"
7,130,"Cc1ccc(F)c([C@@H](C)[C@H](NS(=O)(=O)c2cnc(Cl)cc2C(N)=O)c2n[nH]c(=O)o2)c1C [Example 40, 2-chloro-5-(N-((1S,2R)-2-(6-fluoro-2,3-dimethylphenyl)-1-(5-oxo-4,5-dihydro-1,3,4-oxadiazol-2-yl)propyl)sulfamoyl)isonicotinamide]"
8,100,"Cc1ccc(F)c([C@@H](C)[C@H](NS(=O)(=O)c2ccc(C(F)(F)F)cc2C(N)=O)c2n[nH]c(=O)o2)c1C [Example 41, 2-(N-((1S,2R)-2-(6-fluoro-2,3-dimethylphenyl)-1-(5-oxo-4,5-dihydro-1,3,4-oxadiazol-2-yl)propyl)sulfamoyl)-5-(trifluoromethyl)benzamide]"
9,200,"Cc1c(Br)ccc(F)c1[C@@H](C)[C@H](NS(=O)(=O)c1ccc(C(F)(F)F)cc1C(N)=O)c1n[nH]c(=O)o1 [Example 42, 2-(N-((1S,2R)-2-(3-bromo-6-fluoro-2-methylphenyl)-1-(5-oxo-4,5-dihydro-1,3,4-oxadiazol-2-yl)propyl)sulfamoyl)-5-(trifluoromethyl)benzamide]"
10,80,"[2H]C([2H])([2H])[C@H](c1c(F)ccc(C)c1C)[C@H](NS(=O)(=O)c1ccc(Cl)cc1C(N)=O)c1n[nH]c(=O)o1 [Example 43, 5-chloro-2-[[(1S,2R)-3,3,3-trideuterio-2-(6-fluoro-2,3-dimethylphenyl)-1-(2-oxo-3H-1,3,4-oxadiazol-5-yl)propyl]sulfamoyl]benzamide]"
11,840,"C[C@H](c1cccc2ccccc12)[C@H](NS(=O)(=O)c1ccc(Cl)cc1Cl)c1n[nH]c(=O)o1 [Example 46, 2,4-dichloro-N-((1S,2R)-2-(naphthalen-1-yl)-1-(5-oxo-4,5-dihydro-1,3,4-oxadiazol-2-yl)propyl)benzenesulfonamide]"
12,600,"CC1CCc2cccc(C(C)[C@H](NS(=O)(=O)c3ccc(Br)cn3)c3n[nH]c(=O)o3)c21 (stereo partly drawn) [Example 48, 5-bromo-N-((1S)-2-(3-methyl-2,3-dihydro-1H-inden-4-yl)-1-(5-oxo-4,5-dihydro-1,3,4-oxadiazol-2-yl)propyl)pyridine-2-sulfonamide]"
13,800,"C[C@H](c1cccc2c1Cc1ccccc1-2)[C@H](NS(=O)(=O)c1ccc(Br)cn1)c1n[nH]c(=O)o1 [Example 49, N-((1S,2R)-2-(9H-fluoren-1-yl)-1-(5-oxo-4,5-dihydro-1,3,4-oxadiazol-2-yl)propyl)-5-bromopyridine-2-sulfonamide]"
14,850,"C[C@H](c1cccc2c1-c1ccccc1C2)[C@H](NS(=O)(=O)c1ccc(Br)cn1)c1n[nH]c(=O)o1 [Example 50, N-((1S,2R)-2-(9H-fluoren-4-yl)-1-(5-oxo-4,5-dihydro-1,3,4-oxadiazol-2-yl)propyl)-5-bromopyridine-2-sulfonamide]"
15,770,C[C@H](c1cccc2c1CCCC2)[C@H](NS(=O)(=O)c1ccc(Cl)cn1)c1n[nH]c(=O)o1 [Example 52]
16,990,"C[C@H](c1cccc2c1CCC2)[C@H](NS(=O)(=O)c1ccc(Br)cc1F)c1n[nH]c(=O)o1 [Example 60, 4-bromo-N-((1S,2R)-2-(2,3-dihydro-1H-inden-4-yl)-1-(5-oxo-4,5-dihydro-1,3,4-oxadiazol-2-yl)propyl)-2-fluorobenzenesulfonamide]"
17,700,"COc1cc(Cl)ccc1S(=O)(=O)N[C@H](c1n[nH]c(=O)o1)[C@H](C)c1cccc2c1CC(C)C2 (stereo partly drawn) [Example 67, 4-chloro-2-methoxy-N-((1S,2R)-2-(2-methyl-2,3-dihydro-1H-inden-4-yl)-1-(5-oxo-4,5-dihydro-1,3,4-oxadiazol-2-yl)propyl)benzenesulfonamide]"
18,240,"COc1cc(Cl)ccc1S(=O)(=O)N[C@H](c1n[nH]c(=O)o1)[C@H](C)c1cccc2cccc(C)c12 [Example 71, 4-chloro-2-methoxy-N-((1S,2R)-2-(8-methylnaphthalen-1-yl)-1-(5-oxo-4,5-dihydro-1,3,4-oxadiazol-2-yl)propyl)benzenesulfonamide]"
19,200,"COc1cc(Cl)ccc1S(=O)(=O)N[C@H](c1n[nH]c(=O)o1)[C@H](C)c1c(F)ccc2ccccc12 [Example 76, 4-chloro-N-((1S,2R)-2-(2-fluoronaphthalen-1-yl)-1-(5-oxo-4,5-dihydro-1,3,4-oxadiazol-2-yl)propyl)-2-methoxybenzenesulfonamide]"
20,280,"Cc1cccc2cccc([C@@H](C)[C@H](NS(=O)(=O)c3ccc(Cl)c4c3OCCC4(F)F)c3n[nH]c(=O)o3)c12 [Example 81, 5-chloro-4,4-difluoro-N-((1S,2R)-2-(8-methylnaphthalen-1-yl)-1-(5-oxo-4,5-dihydro-1,3,4-oxadiazol-2-yl)propyl)chroman-8-sulfonamide]"
21,140,"COc1cc(Cl)ccc1S(=O)(=O)N[C@H](c1n[nH]c(=O)o1)[C@H](C)c1c(F)ccc(C)c1C [Example 83, 4-chloro-N-((1S,2R)-2-(6-fluoro-2,3-dimethylphenyl)-1-(5-oxo-4,5-dihydro-1,3,4-oxadiazol-2-yl)propyl)-2-methoxybenzenesulfonamide]"
22,360,"Cc1ccc(F)c([C@@H](C)[C@H](NS(=O)(=O)c2ccc(Cl)cc2C#N)c2n[nH]c(=O)o2)c1C [Example 84, 4-chloro-2-cyano-N-((1S,2R)-2-(6-fluoro-2,3-dimethylphenyl)-1-(5-oxo-4,5-dihydro-1,3,4-oxadiazol-2-yl)propyl)benzenesulfonamide]"
23,840,"COc1cc(Cl)ccc1S(=O)(=O)N[C@H](c1n[nH]c(=O)o1)[C@H](C)c1cccc(C)c1C(C)C [Example 85, 4-chloro-N-((1S,2R)-2-(2-isopropyl-3-methylphenyl)-1-(5-oxo-4,5-dihydro-1,3,4-oxadiazol-2-yl)propyl)-2-methoxybenzenesulfonamide]"
24,400,"CCc1cccc([C@@H](C)[C@H](NS(=O)(=O)c2ccc(Cl)cc2OC)c2n[nH]c(=O)o2)c1C [Example 86, 4-chloro-N-((1S,2R)-2-(3-ethyl-2-methylphenyl)-1-(5-oxo-4,5-dihydro-1,3,4-oxadiazol-2-yl)propyl)-2-methoxybenzenesulfonamide]"
25,840,"CCc1c(C)cccc1[C@@H](C)[C@H](NS(=O)(=O)c1ccc(Cl)cc1OC)c1n[nH]c(=O)o1 [Example 87, 4-chloro-N-((1S,2R)-2-(2-ethyl-3-methylphenyl)-1-(5-oxo-4,5-dihydro-1,3,4-oxadiazol-2-yl)propyl)-2-methoxybenzenesulfonamide]"
